Data taken from patent US9028845B2, “Chimeric immunomodulatory compounds and methods of using the same-IV” (Dynavax Technologies Corporation, priority 2001, dated 2015).
Strand notation (5' to 3'): a small letter for the sugar, then the base; units joined by * are phosphorothioate-linked, units joined directly phosphodiester-linked; [ ] holds rarer units or linkages, { } end groups; capitals alone tell only the bases. d = 2'-deoxy (DNA)

System: human PBMCs
Experiment: Human PBMC cytokine response assay (IFN-γ and IFN-α in cell-free medium by ELISA), with or without cPLGA
Type: cell-based
[1] = Donor 5, 20 μg/ml (mixtures: 20 μg/ml total), 24 h
[2] = Donor 6, 20 μg/ml (mixtures: 20 μg/ml total), 24 h

“5′-TGACTGTGAACCTTAGAGATGA-3′ (SEQ ID NO: 3) (dT*dG*dA*dC*dT*dG*dT*dG*dA*dA*dC*dC*dT*dT*dA*dG*dA*dG*dA*dT*dG*dA) [Compound P-7, negative control, reference compound]” was tested. Which “IFN-α (pg/ml) Donor 1” value (Donor 1, 20 μg/ml, 24 h) did it give?
Its value is 0 pg/mL.

And the “IFN-γ (pg/ml) Donor 1” value (Donor 1, 20 μg/ml, 24 h)?
The value was 410 pg/mL.

What about the “IFN-α (pg/ml) Donor 2” value (Donor 2, 20 μg/ml, 24 h) of the same substance?
Its value is 0 pg/mL.

What about the “IFN-γ (pg/ml) Donor 2” value (Donor 2, 20 μg/ml, 24 h) of the same substance?
The value was 51 pg/mL.

And the “IFN-α (pg/ml) Donor 3” value (Donor 3, 20 μg/ml, 24 h)?
Its value is 0 pg/mL.

What about the “IFN-γ (pg/ml) Donor 3” value (Donor 3, 20 μg/ml, 24 h) of the same substance?
The value was 3 pg/mL.

And the “IFN-α (pg/ml) Donor 4” value (Donor 4, 20 μg/ml, 24 h)?
Its value is 31 pg/mL.

What about the “IFN-γ (pg/ml) Donor 4” value (Donor 4, 20 μg/ml, 24 h) of the same substance?
Its value is 8 pg/mL.

What about the “IFN-α (pg/ml) Donor 5” value [1] of the same substance?
Its value is 20 pg/mL.

What about the “IFN-γ (pg/ml) Donor 5” value [1] of the same substance?
Its value is 7 pg/mL.

And the “IFN-α (pg/ml) Donor 6” value [2]?
Its value is 94 pg/mL.

What about the “IFN-γ (pg/ml) Donor 6” value [2] of the same substance?
The value was 66 pg/mL.

What about the “IFN-α (pg/ml) Donor 7” value (Donor 7, 20 μg/ml, 24 h) of the same substance?
Its value is 0 pg/mL.

What about the “IFN-γ (pg/ml) Donor 7” value (Donor 7, 20 μg/ml, 24 h) of the same substance?
The value was 2 pg/mL.

And the “IFN-α (pg/ml) Donor 8” value (Donor 8, 20 μg/ml, 24 h)?
Its value is 0 pg/mL.

What about the “IFN-γ (pg/ml) Donor 8” value (Donor 8, 20 μg/ml, 24 h) of the same substance?
Its value is 2 pg/mL.

What about the “IFN-α Donor 9” value (Donor 9, 20 μg/ml, 24 h) of the same substance?
Its value is 0.

What about the “IFN-γ Donor 9” value (Donor 9, 20 μg/ml, 24 h) of the same substance?
Its value is 5.

And the “IFN-α Donor 10” value (Donor 10, 20 μg/ml, 24 h)?
Its value is 3.

And the “IFN-γ Donor 10” value (Donor 10, 20 μg/ml, 24 h)?
The value was 2.

And the “IFN-α Donor 11” value (Donor 11, 20 μg/ml, 24 h)?
The value was 1.

What about the “IFN-γ Donor 11” value (Donor 11, 20 μg/ml, 24 h) of the same substance?
The value was 3.

What about the “IFN-α Donor 12” value (Donor 12, 20 μg/ml, 24 h) of the same substance?
The value was 5.

What about the “IFN-γ Donor 12” value (Donor 12, 20 μg/ml, 24 h) of the same substance?
Its value is 2.

And the IFN-α (Example 58, 0.8 ug/ml, donor 1)?
Its IFN-α is 52 pg/mL.

And the IFN-α (Example 58, 0.8 ug/ml, donor 2)?
The IFN-α was 52 pg/mL.

What about the IFN-α (Example 58, 0.8 ug/ml, donor 3) of the same substance?
The IFN-α was 52 pg/mL.

What about the IFN-α (Example 58, 0.8 ug/ml, donor 4) of the same substance?
Its IFN-α is 52 pg/mL.

What about the IFN-α mean (Example 58, 0.8 ug/ml, mean of four individuals) of the same substance?
Its IFN-α mean is 52 pg/mL.

What about the IFN-α (Example 58, 4 ug/ml, donor 1) of the same substance?
The IFN-α was 52 pg/mL.

What about the IFN-α (Example 58, 4 ug/ml, donor 2) of the same substance?
The IFN-α was 52 pg/mL.

What about the IFN-α (Example 58, 4 ug/ml, donor 3) of the same substance?
Its IFN-α is 52 pg/mL.

And the IFN-α (Example 58, 4 ug/ml, donor 4)?
Its IFN-α is 52 pg/mL.

What about the IFN-α mean (Example 58, 4 ug/ml, mean of four individuals) of the same substance?
The IFN-α mean was 52 pg/mL.

What about the IFN-α (Example 58, 20 ug/ml, donor 1) of the same substance?
Its IFN-α is 52 pg/mL.

What about the IFN-α (Example 58, 20 ug/ml, donor 2) of the same substance?
The IFN-α was 52 pg/mL.

And the IFN-α (Example 58, 20 ug/ml, donor 3)?
The IFN-α was 52 pg/mL.

What about the IFN-α (Example 58, 20 ug/ml, donor 4) of the same substance?
Its IFN-α is 52 pg/mL.

And the IFN-α mean (Example 58, 20 ug/ml, mean of four individuals)?
The IFN-α mean was 52 pg/mL.

What about the IFN-α (Example 59, 0.8 ug/ml, donor 48) of the same substance?
The IFN-α was 102 pg/mL.

And the IFN-α (Example 59, 0.8 ug/ml, donor 177)?
The IFN-α was 102 pg/mL.

What about the IFN-α (Example 59, 0.8 ug/ml, donor 272) of the same substance?
The IFN-α was 102 pg/mL.

What about the IFN-α (Example 59, 0.8 ug/ml, donor 273) of the same substance?
The IFN-α was 102 pg/mL.

And the IFN-α mean (Example 59, 0.8 ug/ml, mean of four donors)?
Its IFN-α mean is 102 pg/mL.

And the IFN-α (Example 59, 4 ug/ml, donor 48)?
Its IFN-α is 102 pg/mL.

And the IFN-α (Example 59, 4 ug/ml, donor 177)?
Its IFN-α is 102 pg/mL.

What about the IFN-α (Example 59, 4 ug/ml, donor 272) of the same substance?
Its IFN-α is 102 pg/mL.

And the IFN-α (Example 59, 4 ug/ml, donor 273)?
The IFN-α was 102 pg/mL.

What about the IFN-α mean (Example 59, 4 ug/ml, mean of four donors) of the same substance?
The IFN-α mean was 102 pg/mL.

And the IFN-α (Example 59, 20 ug/ml, donor 48)?
The IFN-α was 102 pg/mL.

And the IFN-α (Example 59, 20 ug/ml, donor 177)?
Its IFN-α is 102 pg/mL.

And the IFN-α (Example 59, 20 ug/ml, donor 272)?
Its IFN-α is 102 pg/mL.

What about the IFN-α (Example 59, 20 ug/ml, donor 273) of the same substance?
Its IFN-α is 102 pg/mL.

What about the IFN-α mean (Example 59, 20 ug/ml, mean of four donors) of the same substance?
The IFN-α mean was 102 pg/mL.

And the IFN-α (Table 9, donor 28089)?
The IFN-α was 0 pg/mL.

What about the IFN-γ (Table 9, donor 28089) of the same substance?
Its IFN-γ is 0 pg/mL.

And the IFN-α (Table 9, donor 28090)?
The IFN-α was 27 pg/mL.

And the IFN-γ (Table 9, donor 28090)?
Its IFN-γ is 4 pg/mL.

And the IFN-α (Table 9, donor 28098)?
The IFN-α was 19 pg/mL.

And the IFN-γ (Table 9, donor 28098)?
The IFN-γ was 0 pg/mL.

What about the IFN-α (Table 9, donor 28099) of the same substance?
The IFN-α was 37 pg/mL.

What about the IFN-γ (Table 9, donor 28099) of the same substance?
Its IFN-γ is 2 pg/mL.

What about the IFN-α mean (Table 9, mean of donors) of the same substance?
The IFN-α mean was 21 pg/mL.

What about the IFN-γ mean (Table 9, mean of donors) of the same substance?
Its IFN-γ mean is 1 pg/mL.

And the IFN-α (Table 10, donor 28042)?
The IFN-α was 0 pg/mL.

And the IFN-γ (Table 10, donor 28042)?
Its IFN-γ is 66 pg/mL.

What about the IFN-α (Table 10, donor 28043) of the same substance?
The IFN-α was 11 pg/mL.

And the IFN-γ (Table 10, donor 28043)?
The IFN-γ was 76 pg/mL.

And the IFN-α (Table 10, donor 28044)?
Its IFN-α is 22 pg/mL.

And the IFN-γ (Table 10, donor 28044)?
The IFN-γ was 26 pg/mL.

And the IFN-α (Table 10, donor 28045)?
Its IFN-α is 20 pg/mL.

And the IFN-γ (Table 10, donor 28045)?
Its IFN-γ is 13 pg/mL.

What about the IFN-α mean (Table 10, mean of donors) of the same substance?
Its IFN-α mean is 13 pg/mL.

And the IFN-γ mean (Table 10, mean of donors)?
The IFN-γ mean was 45 pg/mL.

What about the IFN-α (Table 11, donor 28042) of the same substance?
Its IFN-α is 0 pg/mL.

And the IFN-γ (Table 11, donor 28042)?
Its IFN-γ is 34 pg/mL.

What about the IFN-α (Table 11, donor 28043) of the same substance?
The IFN-α was 0 pg/mL.

And the IFN-γ (Table 11, donor 28043)?
The IFN-γ was 19 pg/mL.

What about the IFN-α (Table 11, donor 28044) of the same substance?
Its IFN-α is 4 pg/mL.

And the IFN-γ (Table 11, donor 28044)?
Its IFN-γ is 48 pg/mL.

What about the IFN-α (Table 11, donor 28045) of the same substance?
Its IFN-α is 54 pg/mL.

And the IFN-γ (Table 11, donor 28045)?
The IFN-γ was 35 pg/mL.

And the IFN-α mean (Table 11, mean of donors)?
Its IFN-α mean is 15 pg/mL.

What about the IFN-γ mean (Table 11, mean of donors) of the same substance?
Its IFN-γ mean is 34 pg/mL.

And the IFN-α (Table 24, donor 28234)?
The IFN-α was 62 pg/mL.

And the IFN-γ (Table 24, donor 28234)?
The IFN-γ was 13 pg/mL.

And the IFN-α (Table 24, donor 28235)?
The IFN-α was 16 pg/mL.

And the IFN-γ (Table 24, donor 28235)?
Its IFN-γ is 4 pg/mL.
